The test system of series [1] is outer hair cells (OHCs) and inner hair cells (IHCs). In words: Cochlear explant model: hair cell protection against cisplatin. The settings on record: for EC100: Rattus norvegicus, read-out: Ex-vivo Efficacy Conc. for complete protection of hair cells (uM); for protection of hair cells against cisplatin: 1.5 hour pretreatment followed by co-treatment at different concentrations with 10 μM cisplatin. Format: cell-based, Sprague-Dawley rats. The source says: (§1) For hair cell and spiral ganglion assessment, postnatal Sprague-Dawley rats (P2-P4) of both sexes are anesthetized with isoflurane and decapitated. Temporal bones are removed and transferred to a cell culture dish with ice-cold Ca^2+/Mg^2+-containing phosphate-buffered saline (PBS; Invitrogen) or cold HBSS medium enriched with glucose. Under microscopic visualization, the cochlear capsules are carefully removed from the temporal bone using forceps and transferred to a new cell culture dish containing ice-cold PBS. The cochleae are then dissected from the cochlear capsule using fine forceps. The stria vascularis is removed from the cochlear tissue and discarded. Dissected cochlear epithelia are transferred to permeable membrane inserts (Millicell organotypic culture plate inserts, Millipore) which are placed into 1 mL of culture media (Dulbecco's modified Eagle's medium (high glucose, Glutamax, 25 mM HEPES) with 10% fetal bovine serum, 1% N2 supplement and 10 units/ml penicillin) in a 6-well plate. Up to 4 cochleae are placed onto each membrane. Explants are placed in a humidified chamber with 5% CO2 at 37° C. for a minimum of 18 hours prior to treatment. Cultures are then pre-treated with test compounds and returned to the incubator for a period of 10 minutes to 48 hours.
(§2) Following the incubation period, cochlear samples are fixed in 4% paraformaldehyde for a minimum of 30 minutes after treatment then permeabilized in 0.5% Triton in PBS (PBST) for 1 hour, followed by overnight incubation at 4° C. in primary antibodies in 10% goat or donkey serum (Sigma). Samples are then rinsed in PBST 2 times for 10 minutes each then incubated in alexa-488 conjugated secondary antibodies for 2 hours at room temperature or overnight at 4° C. in 10% goat or donkey serum (Sigma). Samples are then rinsed 2 times in PBS then incubated in DAPI (1:3000) in PBS for 5 minutes prior to mounting on slides. To evaluate the otoprotective efficacy of the compounds, cochlear samples are immunostained using combination of antibodies generated against markers specific for hair cells (Myosin V1, Myosin VIIA, Parvalbumin, etc.), SGNs (TUJ1, Neurofilament, etc.), f-actin, cell death, cell stress, etc. as well as a nuclear stain to identify cell nuclei.
(§3) Immunostained samples are mounted on glass slides and imaged with an LSM880 laser scanning confocal microscope (Zeiss) or an Operetta high-content imager (Perkin Elmer). The entire explant is imaged for all antibody and nuclear labeling in a 3-dimensional X-Y-Z plane in which the Z-plane consists of a stack imaged at intervals of 0.5-5 μm. The total length of the organ of Corti in each explant is then determined and is divided into 4 equal length regions. Basal, middle and apical hair cells or SGNS are counted at the regions approximately 25%, 50% or 75% of the total cochlear length from the base, respectively. Hair cell survival is determined by counting the number of inner and outer hair cells at these three different regions (base, middle and apex) in each cochlear explant and determining the number of missing/dead hair cells per cochlear region. Hair cell counts are obtained by placing a 200 μm length scale bar parallel to the rows of hair cells at each region and manually counting the total number of outer hair cells (OHCs) and inner hair cells (IHCs) within the 200 μm. Similarly, to evaluate the health and survival of SGNs, the density of SGN fibers or soma is also determined per region by manual counting for same region selected for counting hair cells. Nuclear staining is analyzed to confirm the presence or absence of cell nuclei and to evaluate nuclear health. Image analysis and quantification is performed using Zeiss Zen Blue software, or Perkin Elmer Columbus software.
(§4) Neonatal (P2-P4) Sprague-Dawley rats were used for the experiments described here. Animals were euthanized following anesthesia using isoflurane. Rat cochleae were then dissected in cold HBSS medium enriched with glucose. […]

Series [2] has as its system spiral ganglion neurons (SGNs). In words: Cochlear explant model: spiral ganglion neuron protection against cisplatin. Format: cell-based, Sprague-Dawley rats.
Text: as §1, §2, §3, §4

Series [3] deals with stria vascularis cells. In words: Dissociated strial cultures, caspase 3/7 activation with cisplatin. In kind it is cell-based, Sprague-Dawley rats. The protocol: For strial explants, the stria vascularis is isolated from the cochlear tissue and transferred to a clean dish with cell culture media. For dissociated strial cultures, the stria vascularis is pulled off the lateral wall and collected separately. Strial cells are then dissociated using a pipette post-trypsinization and seeded onto Poly-d-lysine or collagen-coated 96-well plates. Cells are grown for 48-72 hours to achieve 80-90% confluency before treatment. […] Following treatment, cells are exposed to the Caspase-Glo 3/7 (Promega) reagent for 30 minutes then […] is read on a plate reader. In addition to the cell culture media described above, strial explants can also be maintained in the following media: MEM with Earle's salts, 15 mM HEPES buffer, 2 mM L-glutamine, 10 mg/L MEM non-essential amino acids, 2.5 mg/L fungizone, 100 units/ml penicillin, 100 mg/L streptomycin, 400 μg/L hydrocortisone, 5 mg/L transferrin, 2 nM triiodothyronine, 5 mg/L insulin, […], 10 μg/L epidermal growth factor, and 10% fetal bovine serum.
Following cochlear dissection, Reissner's membrane and the lateral wall were separated and the stria vascularis was then removed from the lateral wall. […] After incubation, cells were lysed using the Promega caspase 3/7 Glo kit and the intensity of caspase 3/7 were read using Perkin-Elmer Enspire plate reader.

Series [4] is described as follows: Cisplatin binding, % bound.
Series [5] in a line: Cisplatin reaction kinetics by HPLC. The conditions noted are these: 50 μM cisplatin + 50 μM of compound (API) in PBS, pH 7.4, 37° C. How it is done:
Reaction kinetics between Cisplatin and the compound of interest (nucleophile) were monitored by high performance liquid chromatography. Isocratic separation was achieved using a Waters Spherisorb C8 column (4×250 mm, 5 μm, 80 Å). The flow rate was set to 1.00 mL/min. The mobile phase consisted of 5 mM Sodium Octanesulfonate+5 mM Tetrabutyl Ammonium Hydrogen Sulfate+20 mM Potassium Dihydrogen Phosphate adjusted to pH 5.9. Detection was performed at a wavelength of 210 nm.
Reactions were conducted at equimolar concentrations in buffered aqueous media and held at 37° C. Rate constants (k) were determined by monitoring the disappearance of Cisplatin as a function of time.

Series [6] is described as follows: Pharmacokinetic study after intratympanic administration. In kind it is in vivo, rats. The conditions noted are these: for plasma exposure after IT injection / perilymph and cochlear epithelium exposure after IT injection: single IT injection; for perilymph and cochlear epithelium exposure after IT injection: MCT and/or poloxamer formulation. The protocol:
Female rats (Charles River) weighing 200-300 g of approximately 12-16 weeks of age served as subjects (N=4 per group). Prior to any procedures, animals were anesthetized using a combination of xylazine (10 mg/kg), ketamine (50 mg/kg), and acepromazine (1 mg/kg) for up to an hour via the intraperitoneal route. If needed, an intraoperative booster was administered intraperitoneal representing a one-tenth of the original dose.
Intratympanic injection—Each animal was positioned so that the head was tilted at an angle to favor injection towards the round window niche. […] Formulations were delivered using a perfusion pump at the rate of 2 μL/sec. Contact with the round window membrane was maintained for 30 minutes by placing the animal in a recumbent position. During the procedure and until recovery, animals were placed on a temperature controlled (40° C.) heating pad until consciousness was regained at which time they were returned to the vivarium.
Perilymph sampling procedure—The skin behind the ear of anesthetized rats was shaved and disinfected with povidone-iodine. An incision was then made behind the ear, and muscles were carefully retracted from over the bulla. A hole was drilled through the bulla using a dental burr so that the middle ear was exposed and accessed. The cochlea and the round window membrane were visualized under a stereo surgical microscope. The basal turn of bulla was cleaned by using small cotton ball. A unique microhole was hand drilled through the bony shell of the cochlea (cochlear capsule) adjacent to the round window. Perilymph (about 2 μL) was then collected using a microcapillary inserted into the cochlear scala tympani. Perilymph samples were added to a vial containing 18 μL of acetonitrile/water, stored at −80° C. until analysis.
Cochlear epithelium sampling procedure—Under a dissection scope, the bulla was opened, and the cochlea was exposed by removing all surrounding muscles, blood vessels and bone tissues. Holding the bulla, the cochlear wall bony structure was removed working from the base to the apex of the cochlea, exposing the organ of Corti. The exposed cochlear epithelium was gently dabbed with cotton swab to remove excess of liquid from tissue, carefully transferred to labelled tube. Each 2-mL plastic tube that contained acid washed 2.8 mm stainless steel beads was pre-weighed. The tubes were reweighed after adding cochlea epithelium and weights were recorded. All cochlea epithelium samples were placed in dry ice immediately after collection and stored at −80° C. prior to analysis.
Plasma sampling procedure—Blood samples were collected by cardiac puncture into labeled micro-tubes, containing lithium heparin as anticoagulant. Plasma were immediately harvested from the blood by centrifugation and collection for supernatants. All plasma samples were stored at −80° C. prior to analysis.
Samples were extracted by protein precipitation, then vortexed and centrifuged. The supernatant was collected and diluted with two folds of water. A high-performance liquid chromatography system (Agilent 1200 series) with Waters Cortecs C18 Plus column (50*4.6 mm, 2.7 μm) were used. The flow rate was set at 0.700 mL/min. A gradient method with an analytical run time of 5 minutes was used. Mobile phase A consisted of 0.01% ammonium formate, 0.03% formic acid in water. Mobile phase B consisted of 0.01% ammonium formate, 0.03% formic acid in acetonitrile: methanol (70:30, v/v). The gradient began with 30% B, stepped to 70% B at 2.75 minutes and held for 1 minute and then stepped back to 30% B to re-equilibrate the column.
Ionizations and detection of analyte and internal standard were performed on a triple quadruple mass spectrometer, API 5500 Q-Trap equipped with Turbo IonSpray@, from SCIEX (Toronto, Canada). Electro spray ionization (ESI) mass spectra was operated in the positive ion mode. Carbutamide was used as the internal standard (IS). […]

In series [7] the test system is cisplatin-induced hearing loss (CIHL). In words: 3-day acute CIHL animal model, ABR thresholds. In kind it is in vivo. The conditions noted are these: 3 days. How it is done: Study Design includes: […] Formulation was delivered IT unilaterally (right ear) 30 min prior CIS. There was gross visual necropsy observation performed at termination. Tissue collected for CCG evaluation • A: Cis IP/Vehicle P407 • B: Cis IP/STS 16 mg/ml in P407 • C: Cis IP/OMY-150 16 mg/ml in P407 • D: Cis IP/OMY-150 50 mg/ml in P407

The mark [8] stands for this setting: 16 mg/ml in P407, IT 30 min prior CIS 12 mg/kg (IP).

Each structure is given as a SMILES string. “Also recorded” adds a separate entry of the source.

On to `O=C(O)c1c[nH]c(=S)[nH]c1=O` [5-carboxy-2-thiouracil], for which the EC100 in series [1] lay in the range of 50 to 100 µM. In addition, the OHC protection result in series [1] (ex-vivo cochlear explants) is reported as “good protection”. Moreover, the SGN protection entry in series [2] (ex-vivo cochlear explants) is listed as “good protection”. Besides, in series [3], the strial cell protection entry was “good protection”. Further, the “Cisplatin Binding % bound (in 30 min) at 1:10 ratio” value in series [4] is 95%.
On to `CCCc1cc(=O)[nH]c(=S)[nH]1` [OMY-141, 6-propyl-2-thiouracil], for which, in series [1], the “protection of hair cells against cisplatin” value is recorded as “complete protection” and the EC100 was 50 to 100 µM. The “Cisplatin Binding % bound (in 30 min) at 1:10 ratio” value in series [4] stood at 95%. Also, the “k” value in series [5] is 10.27 M⁻¹ s⁻¹. Moreover, in series [6], the “In vivo PK in Cochlear Epithelium (24 h after dosing)” value (“In vivo PK in Cochlear Epithelium” below) was approximately 300 ng/gm CE; the “plasma exposure after IT injection” value is given as “some plasma exposure”; the “perilymph and cochlear epithelium exposure after IT injection” value is “good perilymph and cochlear epithelium exposure”.
For `O=c1cc(-c2ccccc2)[nH]c(=S)[nH]1` [OMY-150, 6-phenyl-2-thiouracil], in series [1], the “protection of hair cells against cisplatin” value is “complete protection” and the EC100 came out at 50 µM. In addition, the “protection of spiral ganglion neurons against cisplatin” value in series [2] (1.5 hour pretreatment followed by co-treatment at different concentrations with 10 μM cisplatin) is given as “complete protection”. In addition, the “Cisplatin Binding % bound (in 30 min) at 1:10 ratio” value in series [4] is recorded as 97%. Also, in series [5], the “k” value worked out at 0.50 M⁻¹ s⁻¹. In series [6], the “In vivo PK in Cochlear Epithelium” value is recorded as approximately 1000 ng/gm CE; the “plasma exposure after IT injection” value is “significantly lower (e.g. up to 10 times or more) plasma exposure than OMY-141; also recorded: lower plasma exposure than sodium thiosulfate (STS)”; the “perilymph and cochlear epithelium exposure after IT injection” value is “good perilymph and cochlear epithelium exposure”. Moreover, in series [7] (setting [8]), the “protection of ABR thresholds” value is “strong protection”. Also, in series [7] (50 mg/ml in P407, IT 30 min prior CIS 12 mg/kg (IP)), the “protection of ABR thresholds” value is recorded as “almost complete recovery”.
With `O=S([O-])([O-])=S.[Na+].[Na+]` [STS, sodium thiosulfate, reference compound], the “Ex-vivo Efficacy Conc. for complete protection of hair cells” value in series [1] (ex vivo cochlear explants, cisplatin) turned out to be 100 µM. Further, the “Cisplatin Binding % bound (in 30 min) at 1:10 ratio” value in series [4] was determined as 50%. Also, the “k” value in series [5] is 0.52 M⁻¹ s⁻¹. In addition, the “In vivo PK in Cochlear Epithelium” value in series [6] was approximately 1100 ng/gm CE. Also, in series [7] (setting [8]), the “protection of ABR thresholds” value is reported as “less protection than in previous studies”.
